Laboratory results taken from patent US10004732B2 (Novartis AG, priority 2014, dated 2018).
Like-named read-outs stand apart in the source and are kept apart here.

Columns and labels:
PI 3-kinase alpha [1] = target: T1, PI 3-kinase alpha (Homo sapiens, UniProt P42336); test: Kinase Glo Luminescent Kinase Assay (Kglo), assay A; format: biochemical; settings: read-out: Assay A PI3Kα IC50
PI 3-kinase beta [2] = target: T2, PI 3-kinase beta (Homo sapiens, UniProt P42338); test: Kinase Glo Luminescent Kinase Assay (Kglo), assay B; format: biochemical; settings: read-out: Assay B PI3Kβ IC50
Target sequence in this assay (P42338 whole entry): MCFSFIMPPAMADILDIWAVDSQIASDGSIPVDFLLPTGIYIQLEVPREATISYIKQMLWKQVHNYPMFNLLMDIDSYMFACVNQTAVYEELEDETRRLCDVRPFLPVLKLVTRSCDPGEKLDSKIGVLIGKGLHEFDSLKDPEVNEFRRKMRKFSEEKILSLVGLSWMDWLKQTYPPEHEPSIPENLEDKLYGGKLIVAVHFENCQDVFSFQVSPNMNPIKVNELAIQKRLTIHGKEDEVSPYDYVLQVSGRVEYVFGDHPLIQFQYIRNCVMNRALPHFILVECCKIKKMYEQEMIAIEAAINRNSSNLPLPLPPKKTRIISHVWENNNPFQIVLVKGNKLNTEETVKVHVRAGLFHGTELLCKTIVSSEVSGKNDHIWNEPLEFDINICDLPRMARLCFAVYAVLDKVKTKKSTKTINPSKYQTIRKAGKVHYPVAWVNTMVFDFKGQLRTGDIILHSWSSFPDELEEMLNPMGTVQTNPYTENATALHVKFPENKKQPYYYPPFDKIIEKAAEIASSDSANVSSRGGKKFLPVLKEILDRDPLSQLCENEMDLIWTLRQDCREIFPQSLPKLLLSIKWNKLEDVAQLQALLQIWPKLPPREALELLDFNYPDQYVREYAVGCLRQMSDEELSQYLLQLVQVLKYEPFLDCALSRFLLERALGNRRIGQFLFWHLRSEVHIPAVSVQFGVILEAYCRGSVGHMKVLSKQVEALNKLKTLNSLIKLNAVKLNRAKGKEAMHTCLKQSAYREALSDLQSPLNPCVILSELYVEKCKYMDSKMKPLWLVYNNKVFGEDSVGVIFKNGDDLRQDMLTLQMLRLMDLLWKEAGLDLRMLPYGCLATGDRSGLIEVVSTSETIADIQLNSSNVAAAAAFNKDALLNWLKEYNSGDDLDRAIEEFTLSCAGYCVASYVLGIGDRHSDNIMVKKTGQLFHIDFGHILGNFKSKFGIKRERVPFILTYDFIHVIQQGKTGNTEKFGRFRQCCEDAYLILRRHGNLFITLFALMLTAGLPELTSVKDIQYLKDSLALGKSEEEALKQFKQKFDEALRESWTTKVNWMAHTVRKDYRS
Target sequence in this assay (P27986 461-568 partner): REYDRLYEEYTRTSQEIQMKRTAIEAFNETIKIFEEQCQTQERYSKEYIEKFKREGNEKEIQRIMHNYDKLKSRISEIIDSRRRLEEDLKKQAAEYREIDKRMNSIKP

Vps34 = Vps34 (Homo sapiens, UniProt Q8NEB9); test: Kinase Glo Luminescent Kinase Assay (Kglo), assay C; format: biochemical
Chain of Vps34 (Q8NEB9 whole entry, species assumed): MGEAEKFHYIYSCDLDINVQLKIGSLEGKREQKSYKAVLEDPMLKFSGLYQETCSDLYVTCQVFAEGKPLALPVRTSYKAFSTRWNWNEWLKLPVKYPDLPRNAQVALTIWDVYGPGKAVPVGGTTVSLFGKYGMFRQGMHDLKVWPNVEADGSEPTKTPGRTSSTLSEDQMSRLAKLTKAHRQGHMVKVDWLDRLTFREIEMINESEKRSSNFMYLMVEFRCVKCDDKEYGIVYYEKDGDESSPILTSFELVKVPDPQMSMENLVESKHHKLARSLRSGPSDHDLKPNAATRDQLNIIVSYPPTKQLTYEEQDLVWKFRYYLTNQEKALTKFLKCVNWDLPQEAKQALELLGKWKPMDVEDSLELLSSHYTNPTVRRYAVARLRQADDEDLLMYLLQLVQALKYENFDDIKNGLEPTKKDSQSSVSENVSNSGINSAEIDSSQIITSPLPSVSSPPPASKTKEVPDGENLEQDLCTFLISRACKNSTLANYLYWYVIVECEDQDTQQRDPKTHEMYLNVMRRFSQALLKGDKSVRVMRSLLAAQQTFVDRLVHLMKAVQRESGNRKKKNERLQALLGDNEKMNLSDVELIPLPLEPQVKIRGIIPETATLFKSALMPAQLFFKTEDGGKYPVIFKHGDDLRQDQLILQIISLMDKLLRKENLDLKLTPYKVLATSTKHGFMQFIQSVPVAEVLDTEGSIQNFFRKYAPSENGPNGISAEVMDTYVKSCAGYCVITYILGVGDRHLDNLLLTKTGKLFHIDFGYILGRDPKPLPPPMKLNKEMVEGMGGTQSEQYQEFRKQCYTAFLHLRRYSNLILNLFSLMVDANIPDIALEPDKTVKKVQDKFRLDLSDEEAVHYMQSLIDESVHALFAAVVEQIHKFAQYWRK

PI 4-kinase beta = PI 4-kinase beta (Homo sapiens, UniProt Q9UBF8); test: Kinase Glo Luminescent Kinase Assay (Kglo), assay D; format: biochemical
Chain of PI 4-kinase beta (Q9UBF8 whole entry): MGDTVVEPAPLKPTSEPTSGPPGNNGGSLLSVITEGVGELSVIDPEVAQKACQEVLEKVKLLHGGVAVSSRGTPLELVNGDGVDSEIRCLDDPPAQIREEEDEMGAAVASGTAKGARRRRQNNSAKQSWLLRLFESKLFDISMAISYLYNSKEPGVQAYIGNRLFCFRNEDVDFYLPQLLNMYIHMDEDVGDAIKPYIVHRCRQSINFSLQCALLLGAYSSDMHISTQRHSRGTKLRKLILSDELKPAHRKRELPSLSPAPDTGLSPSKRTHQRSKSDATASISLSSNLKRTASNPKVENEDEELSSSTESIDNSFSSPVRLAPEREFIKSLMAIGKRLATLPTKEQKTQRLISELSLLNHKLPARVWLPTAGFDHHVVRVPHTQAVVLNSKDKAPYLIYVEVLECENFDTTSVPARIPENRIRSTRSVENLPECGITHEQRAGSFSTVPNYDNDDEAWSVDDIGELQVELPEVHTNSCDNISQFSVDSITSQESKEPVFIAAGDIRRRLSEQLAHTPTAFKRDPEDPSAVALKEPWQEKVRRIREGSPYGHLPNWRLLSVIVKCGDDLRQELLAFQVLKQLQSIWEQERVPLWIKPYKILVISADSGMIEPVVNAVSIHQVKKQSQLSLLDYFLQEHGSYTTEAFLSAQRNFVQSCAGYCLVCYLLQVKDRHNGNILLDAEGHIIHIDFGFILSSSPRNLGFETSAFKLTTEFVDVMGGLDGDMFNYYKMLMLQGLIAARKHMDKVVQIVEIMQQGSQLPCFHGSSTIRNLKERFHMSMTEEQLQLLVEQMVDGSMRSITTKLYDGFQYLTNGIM

PI 3-kinase gamma [3] = target: T3, PI 3-kinase gamma (Homo sapiens, UniProt P48736); test: TR-FRET Adapta assay, assay E; format: biochemical; settings: read-out: Assay E PI3Kγ IC50
T3 sequence (P48736 whole entry): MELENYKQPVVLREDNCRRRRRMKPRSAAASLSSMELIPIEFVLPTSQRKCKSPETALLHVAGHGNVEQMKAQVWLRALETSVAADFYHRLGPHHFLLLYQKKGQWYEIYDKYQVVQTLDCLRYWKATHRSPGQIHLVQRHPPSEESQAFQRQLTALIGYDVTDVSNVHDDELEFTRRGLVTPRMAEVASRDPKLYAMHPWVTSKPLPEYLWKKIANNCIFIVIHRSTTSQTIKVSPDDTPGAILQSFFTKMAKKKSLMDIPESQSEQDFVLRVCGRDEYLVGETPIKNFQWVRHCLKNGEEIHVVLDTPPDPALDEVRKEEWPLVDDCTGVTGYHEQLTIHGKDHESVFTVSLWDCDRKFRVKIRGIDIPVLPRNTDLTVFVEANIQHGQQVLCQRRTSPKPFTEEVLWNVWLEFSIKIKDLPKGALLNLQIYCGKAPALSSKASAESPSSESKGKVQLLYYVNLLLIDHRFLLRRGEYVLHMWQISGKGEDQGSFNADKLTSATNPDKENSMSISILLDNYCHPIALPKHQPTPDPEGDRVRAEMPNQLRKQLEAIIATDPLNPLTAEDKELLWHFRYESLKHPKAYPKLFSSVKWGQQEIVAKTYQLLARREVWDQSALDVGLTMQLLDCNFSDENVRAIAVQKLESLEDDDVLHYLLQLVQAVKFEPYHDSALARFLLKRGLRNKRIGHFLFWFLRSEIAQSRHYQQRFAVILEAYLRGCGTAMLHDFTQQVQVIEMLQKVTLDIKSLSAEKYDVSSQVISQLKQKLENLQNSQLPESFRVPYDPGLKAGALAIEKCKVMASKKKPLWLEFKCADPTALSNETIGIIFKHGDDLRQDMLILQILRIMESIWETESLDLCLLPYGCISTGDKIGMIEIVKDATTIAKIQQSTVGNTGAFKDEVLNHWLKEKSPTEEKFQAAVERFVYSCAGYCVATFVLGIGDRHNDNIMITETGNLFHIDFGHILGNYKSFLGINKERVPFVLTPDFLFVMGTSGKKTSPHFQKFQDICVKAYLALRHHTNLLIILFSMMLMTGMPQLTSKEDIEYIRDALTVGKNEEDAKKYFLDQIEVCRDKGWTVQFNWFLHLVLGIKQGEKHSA

PI 3-kinase alpha [4] = target: T1, PI 3-kinase alpha; test: Cellular assay H2, p-AKT (Ser473) in Rat-1 cells, HTRF format; format: cell-based; settings: asterisked data: version H2 (HTRF format), read-out: Assay H PI3Kα IC50
Description: (§1) Cellular Assays for PI 3-Kinase Alpha (H2), Beta (12) and Delta (J2): HTRF (Homogeneous Time Resolved Fluorescence) Format
(§2) All cell lines were cultivated in complete growth medium (DMEM high glucose GlutaMAX™ Pyruvate, 10% (v/v) fetal bovine serum, 0.1 mM MEM NEAA, 25 mM HEPES, puromycin 10 μg/mL, 100 U/ml Penicillin, 100 μg/ml Streptomycin) to 90% confluency at 37° C./5% CO2/90% humidity in a humidified CO2 incubator and were split twice a week.
(§3) Semi-automated preparation of cell lysates: For low (inhibited) controls, 0.9 mM NVP-BGT226-AF-1 in 90% (v/v) DMSO was added to the compound master plate. For compound testing, the cells were seeded at a density of 4000 (Rat-1_PI3Kdelta), 8000 (Rat-1_PI3Kalpha), or 6500 (Rat-1_PI3Kbeta) cells in 30 μl complete growth medium into cell culture treated 384-well plates and were grown at 37° C./5% CO2/90% humidity for 24 h. 10 μl of the compound predilutions were transferred to the cells.

PI 3-kinase beta [5] = target: T2, PI 3-kinase beta; test: Cellular assay I2, p-AKT (Ser473) in Rat-1 cells, HTRF format; format: cell-based; settings: asterisked data: version I2 (HTRF format), read-out: Assay I PI3Kβ IC50
Target sequence in this assay (P42338 whole entry): as the sequence (P42338 whole entry) above
Target sequence in this assay (Q63787 whole entry partner): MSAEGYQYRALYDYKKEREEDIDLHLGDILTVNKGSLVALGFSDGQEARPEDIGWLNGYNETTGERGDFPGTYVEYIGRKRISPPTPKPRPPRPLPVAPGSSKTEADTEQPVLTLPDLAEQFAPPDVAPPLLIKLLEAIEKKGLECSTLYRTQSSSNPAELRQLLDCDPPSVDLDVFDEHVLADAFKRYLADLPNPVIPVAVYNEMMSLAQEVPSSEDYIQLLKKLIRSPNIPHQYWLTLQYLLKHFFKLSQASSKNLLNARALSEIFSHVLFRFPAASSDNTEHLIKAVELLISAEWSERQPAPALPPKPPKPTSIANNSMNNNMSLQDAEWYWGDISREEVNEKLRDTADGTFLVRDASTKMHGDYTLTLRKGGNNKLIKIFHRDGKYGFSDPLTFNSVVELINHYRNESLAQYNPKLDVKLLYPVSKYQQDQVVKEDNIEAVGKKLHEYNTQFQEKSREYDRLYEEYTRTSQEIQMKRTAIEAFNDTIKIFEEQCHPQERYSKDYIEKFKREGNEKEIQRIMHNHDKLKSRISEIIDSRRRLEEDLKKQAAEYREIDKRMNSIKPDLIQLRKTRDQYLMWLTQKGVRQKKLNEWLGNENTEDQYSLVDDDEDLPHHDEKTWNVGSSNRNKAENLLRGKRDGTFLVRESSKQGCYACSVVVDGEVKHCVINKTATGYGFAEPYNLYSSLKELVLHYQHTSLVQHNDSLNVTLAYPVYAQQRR
Description: as §1, §2, §3

PI 3-kinase delta [6] = target: T4, PI 3-kinase delta (Homo sapiens, UniProt O00329); test: Cellular assay J2, p-AKT (Ser473) in Rat-1 cells, HTRF format; format: cell-based; settings: asterisked data: version J2 (HTRF format), read-out: Assay J PI3Kδ IC50
Description: as §1, §2, §3

PI 3-kinase gamma [7] = target: T3, PI 3-kinase gamma; test: Cellular U937 AKT assay K2 (HTRF); format: cell-based; settings: U937 cells, K2 format; read-out: Assay K2 PI3Kγ IC50
[8] = system: IL-8-induced neutrophil shape change in human whole blood; test: Whole blood neutrophil shape change assay (L); format: cell-based; settings: Homo sapiens, Neutrophil, IL-8, human whole blood, read-out: Assay L WBSC IC50
Description: Whole Blood Neutrophil Shape Change Assay (L)
IL-8 was made up to 2 μM stocks in 0.1% bovine serum albumin/PBS and stored at −80° C. On the day IL-8 was diluted in PBS (phosphate buffered saline) 10 minutes before use. IL-8 was used at final concentration of 2 nM and a concentration range from 0.003 to 200 nM for the donor dose response curve.
Assay fixative solution was prepared fresh each day from 10× concentrated CellFIX™ solution diluted 1:10 in sterile distilled water and then 1:4 with PBS. Assay fixative solution was kept on ice prior to use.
A 10× lysis buffer was prepared in advance by dissolving 20.75 g NH4Cl and 2.5 g KHCO3 in 250 ml sterile H2O. This 10× lysis buffer was filtered under sterile conditions and stored for up to two weeks at 4° C. On the day a 1× lysis solution was prepared with sterile distilled H2O and kept on ice prior to use.
The test compounds were prepared as 10 mM stock solutions in 100% DMSO and were stored at 4° C. Once in use for an assay 10 mM stock compounds were thawed and stored at RT protected from light. Compound dilutions were prepared fresh on the day. The first series of dilutions in 100% DMSO were done first thing in the morning. Only once blood had been collected and arrived in laboratory was the next set of dilutions into PBS carried out (1:10 PBS, 10% DMSO). This limited the exposure of diluted compound to plastic and made sure the exposure timing was consistent between assays.
Compound dilutions in 100% DMSO were prepared as described previously. Human whole blood was collected in K2 EDTA Vacutainers. Once blood was in the laboratory, compound dilutions into PBS were carried out as described previously and depicted in Table 1.
The outer wells of the deep well assay plate were filled with 1200 μl of sterile distilled H2O in an effort to limit edge effects (rows A1-H1, A1-A12, A12-H12).
An IL-8 dose response was determined for each blood donor examined, to monitor the donor response to IL-8. At this step in assay preparation for the IL-8 dose response samples 10 μl of PBS was added to designated wells. In addition the assay window without DMSO was also assessed each day. For such samples at this step in assay preparation 10 μl of PBS was added in the place of 10% DMSO.
Lids were placed on the 96 well plates and samples were incubated for 15 minutes at 37° C. in a water-bath.
Following the compound pre-incubation 10× final IL-8 was added to appropriate wells (10 μl of 20 nM working stock IL-8, final IL-8 concentration in blood=2 nM) and 10 μl of PBS was added to the un-stimulated controls. 10× final dose response range IL-8 was also added to designated wells (final concentration range on assay plate was 200 nM to 0.0005 nM, 1:5 serial dilution in PBS). The IL-8 and PBS were added to appropriate wells across all assay plates in the same sequence as the blood to compound addition. […] Samples were incubated for 5 minutes at 37° C. in a water-bath. Following the incubation sample plates were transferred to ice where 250 μl of chilled Assay Fixative Buffer was added promptly to all wells.
Samples were incubated on ice for 7 minutes (no mixing). […] Once added samples were mixed once and incubated on ice for 30 minutes to achieve uniform red blood cells lysis. After lysis, 200 μl of sample was transferred to a 96 well microplate on ice. […] Granulocytes were identified based on differential side scatter (SSC) and forward scatter (FSC) characteristics.

PI 3-kinase delta [9] = target: T4, PI 3-kinase delta; test: TR-FRET Adapta assay, assay F
Description: TR-FRET Adapta Assay for PI 3-Kinase Gamma (E), PI 3-Kinase Delta (F)
The TR-FRET Adapta™ Universal Kinase Assay Kit was purchased from Invitrogen Corporation (Carlsbad/CA, USA) (Cat. No. PV5099).
PIK3CD substrate phosphatidylinositol (PI) was obtained from Invitrogen (vesicules consisting of 2 mM phosphatidylinositol (PI) in 50 mM HEPES pH7.5; Cat. No. PV5371). PIK3CG substrate phosphatidylinositol-4,5-bisphosphate (PIP(4,5)2 was obtained from Invitrogen (PIP2:PS large unilamellar vesicules consisting of 1 mM PIP2: 19 mM PS in 50 mM HEPES pH7.5, 3 mM MgCl2, 1 mM EGTA; Cat. No. PV5100).
Time-Resolved Fluorescence Resonance Energy Transfer (TR-FRET) is a technology based on energy transfer between two adjacent dyes, from an excited electron in one dye (the donor) to an electron of an adjacent dye (the acceptor) through resonance, then released as a photon. This energy transfer is detected by an increase in the fluorescence emission of the acceptor, and a decrease in the fluorescence emission of the donor. TR-FRET assays for protein kinases use a long-lifetime lanthanide Terbium or Europium chelates as the donor species which overcome interference from compound autofluorescence or light scatter from precipitated compounds, by introducing a delay after excitation by a flashlamp excitation source. Results are often expressed as a ratio of the intensities of the acceptor and donor fluorophores. The ratiometric nature of such a value corrects for differences in assay volumes between wells, as well as corrects for quenching effects due to colored compounds. The Adapta™ assay can be divided into two phases: a kinase reaction phase and an ADP detection phase. In the kinase reaction phase, all kinase reaction components are added to the well and the reaction is allowed to incubate for a set period of time specific for each kinase. […] In the presence of an inhibitor, the amount of ADP formed by the kinase reaction is reduced, and the resulting intact antibody-tracer interaction maintains a high TR-FRET signal.
50 nL of compound dilutions were dispensed onto white 384-well small volume polystyrene plate. Then 5 μL of either PI 3-kinase gamma or PI 3-kinase delta and lipid substrate (PI or PIP2:PS) followed by 5 μL of ATP (final assay volume 10 μL) are incubated at RT. The standard reaction buffer for the Adapta™ TR-FRET assay contained 10 mM Tris-HCl pH 7.5, 3 mM MgCl2, 50 mM NaCl, 1 mM DTT, 0.05% CHAPS 3-[(3-cholamidopropyl)dimethylammonio]-1-propanesulfonate).
Data are analyzed using Excel fit software or Graphpad Prism. IC50 values were derived by fitting a sigmoidal dose-response curve to a plot of assay readout over inhibitor concentration. All fits were performed with the program XLfit4 (ID Business Solutions, Guildford, UK). […] All fits were performed with the program XLfit4 (ID Business Solutions, Guildford, UK).

[10] = Microsomal clearance assay (M); settings: intrinsic clearance in rat liver microsomes
Description: (§4) The experiments were performed in 96-well glass plates at 37° C. on an automated Tecan EVO platform. Test compounds at a concentration of 10 mM in pure DMSO were diluted 1:1000 in water to 10 μM. […] Reactions were initiated by the addition of 150 μL of a cofactor solution containing 2 mM NADPH.

mTOR = mTOR (Homo sapiens, UniProt P42345); test: Lanthascreen kinase binding assay, assay G; settings: Assay G mTOR IC50 (μM)
Description: Lanthascreen™ Kinase Binding Assay for mTOR (G)
Binding of an inhibitor to the kinase competes for binding with the tracer, resulting in a loss of FRET.
50 nL of compound dilutions were dispensed onto white 384-well small volume polystyrene plate.

PI 3-kinase alpha [11] = target: T1, PI 3-kinase alpha; test: Cellular assay H1, p-Akt (S473) in Rat-1 cells, Surefire format; format: cell-based
PI 3-kinase beta [12] = target: T2, PI 3-kinase beta; test: Cellular assay I1, p-Akt (S473) in Rat-1 cells, Surefire format; format: cell-based
Target sequence in this assay (P42338 whole entry): as the sequence (P42338 whole entry) above
Target sequence in this assay (Q63787 whole entry partner): as the sequence (Q63787 whole entry partner) above
Excerpt: (§5) Cellular Assays for PI 3-Kinase Alpha (H1), Beta (I1) and Delta (J1): Surefire Format
(§6) AlphaScreen (Amplified Luminescent Proximity Homogeneous Assay, ALPHA, Perkin Elmer) is a non-radioactive bead-based proximity assay technology to study biomolecular interactions in a homogenous microtiter plate format. The brand name SureFire denotes AlphaScreen assays that are adapted to quantify the phosphorylation of endogenous cellular proteins in cell lysates, by using matched antibody pairs, which consist of an anti-phospho-kinase and an anti-kinase antibody. The assay allows characterization of kinase signaling in cells as well as measurement of kinase inhibitor effects.
(§7) Using Rat-1 cells stably expressing myr-HA-tagged versions of the human PI3Kdelta, PI3Kalpha, or PI3Kbeta p110 catalytic subunit isoforms, the assay was developed as a two-plate protocol in a 384-well format.
(§8) For compound testing, the cells were seeded at a density of 4000 (Rat-1_PI3Kdelta), 7500 (Rat-1_PI3Kalpha), or 6200 (Rat-1_PI3Kbeta) cells in 20 μl complete growth medium into cell culture treated 384-well plates and were grown at 37° C./5% CO2/90% humidity for 24 h. Shortly before compound transfer, the complete medium was removed, 30 μl assay buffer (DMEM high glucose, 1×MEM NEAA, 10 mM HEPES, 2 mM L-glutamine, 0.1% (w/v) BSA) was added and 10 μl of the compound predilutions were transferred to the cells.

PI 3-kinase delta [13] = target: T4, PI 3-kinase delta; test: Cellular assay J1, p-Akt (S473) in Rat-1 cells, Surefire format; format: cell-based
Excerpt: as §5, §6, §7, §8

PI 3-kinase gamma [14] = target: T3, PI 3-kinase gamma; test: Cellular U937 AKT assay K1 (MSD); format: cell-based; settings: U937 cells, K1 format; read-out: Assay K1 PI3Kγ IC50
[15] = rat, microsomes, 1 µM, pH 7.4
Description: as §4

| SMILES | IC50 (PI 3-kinase alpha [1]) [nM] | IC50 (PI 3-kinase beta [2]) [nM] | IC50 (Vps34; read-out: Assay C VPS34 IC50) [nM] | IC50 (PI 4-kinase beta; read-out: Assay D PI4Kβ IC50) [µM] | IC50 (PI 3-kinase gamma [3]) [nM] | IC50 (PI 3-kinase alpha [4]) [nM] | IC50 (PI 3-kinase beta [5]) [nM] | IC50 (PI 3-kinase delta [6]) [nM] | IC50 (PI 3-kinase gamma [7]) [nM] | IC50 [8] [nM] | IC50 (PI 3-kinase delta [9]) [nM] | Assay M RLM CI(int) [10] [µL/min/mg] | further results |
| --- | --- | --- | --- | --- | --- | --- | --- | --- | --- | --- | --- | --- | --- |
| Cc1ncc(-c2nc(-c3cc(S(=O)(=O)N[C@H]4C[C@@H](O)C4)ccc3C)cnc2N)s1 [Example 43a, cis-3-(5-Amino-6-(2-methylthiazol-5-yl)pyrazin-2-yl)-N-(3-hydroxycyclobutyl)-4-methylbenzenesulfonamide] | 100 | 690 | 2500 | 2.3 | 26 | 2140 | 4560 | 970 | 68 | 992 | 670 | 63 | – |
| Cc1ncc(-c2nc(-c3cc(S(=O)(=O)N[C@H]4C[C@H](O)C4)ccc3C)cnc2N)s1 [Example 43b, trans-3-(5-Amino-6-(2-methylthiazol-5-yl)pyrazin-2-yl)-N-(3-hydroxycyclobutyl)-4-methylbenzenesulfonamide] | 230 | 1500 | 5500 | 4.8 | 42 | 5440 | 2950 | 2180 | 180 | – | 2200 | 45 | – |
| Cc1ccc(S(=O)(=O)NC2CCOCC2)cc1-c1cnc(N)c(-n2cncn2)n1 [Example 68, 3-(5-Amino-6-(1H-1,2,4-triazol-1-yl)pyrazin-2-yl)-4-methyl-N-(tetrahydro-2H-pyran-4-yl)benzenesulfonamide] | 640 | 2550 | – | – | 72 | – | – | – | – | 1790 | – | – | IC50 (Vps34): > 10000 nM; IC50 (PI 4-kinase beta; Assay D PI4Kβ IC50 (μM)): 4.4 µM; IC50 (mTOR): 8.75 µM; IC50 (PI 3-kinase alpha [11]): 2840 nM; IC50 (PI 3-kinase beta [12]): 6250 nM; IC50 (PI 3-kinase delta [13]): 3110 nM; IC50 (PI 3-kinase gamma [14]): 430 nM; Assay M RLM CI(int) [15]: 54 µL/min/mg; IC50 (PI 3-kinase delta [9]; read-out: Assay F PI3Kδ IC50): 1500 nM |
